# Bridge positions count the residues as written; N and C are the ends. Square brackets hold non-standard residues; d marks the D form. Peptide text beside a SMILES is read from it. * marks the point of attachment. Phe(3-CF3) = N[C@@H](Cc1cccc(C(F)(F)F)c1)C(=O)O; Ala(morpholin-4-yl) = N[C@@H](CN1CCOCC1)C(=O)O; Phe(4-COOH) = N[C@@H](Cc1ccc(C(=O)O)cc1)C(=O)O; Bip = N[C@@H](Cc1ccc(-c2ccccc2)cc1)C(=O)O; NH(CH2)14COOH = O=C(O)CCCCCCCCCCCCCCN*; Phe(3-Me) = Cc1cccc(C[C@H](N)C(=O)O)c1; Val(3-OH) = CC(C)(O)[C@H](N)C(=O)O; Cha = N[C@@H](CC1CCCCC1)C(=O)O; Cit = NC(=O)NCCC[C@H](N)C(=O)O; Carboxymethyl = O=C(O)C*; Orn = NCCC[C@H](N)C(=O)O; Aun = NCCCCCCCCCCC(=O)O; Dab = NCC[C@H](N)C(=O)O; Dap = NC[C@H](N)C(=O)O; AEEA = NCCOCCOCC(=O)O
# Target: T1, PD-1/PD-L1 interaction (PE-labeled human PD-L1-Ig binding to Jurkat cell line over-expressing human PD-1) (Homo sapiens, UniProt Q15116)
# T1 construct: expressed in transfected cells; host or cells: Jurkat
# Experiment: Jurkat-PD-1 Cell Binding High-Content Screening Assay (CBA)
# Assay type: cell-based
# Settings: Jurkat cell line over-expressing human PD-1; PE-labeled PD-L1-Ig 20 nM final; read-out: Jurkat hPD1-PDL1 IC50
# How it was run: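 Jurkat cells over-expressing human PD-1 (8×10^3 per well, DMEM/10% FCS) preincubated with compound 2 h at 37° C, then PE-labeled human PD-L1-Ig (20 nM final) added for 1 h. Cells fixed with paraformaldehyde, Hoechst-stained, and bound fluorescence quantified by high-content imaging.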
# T1 sequence (Q15116 25-288): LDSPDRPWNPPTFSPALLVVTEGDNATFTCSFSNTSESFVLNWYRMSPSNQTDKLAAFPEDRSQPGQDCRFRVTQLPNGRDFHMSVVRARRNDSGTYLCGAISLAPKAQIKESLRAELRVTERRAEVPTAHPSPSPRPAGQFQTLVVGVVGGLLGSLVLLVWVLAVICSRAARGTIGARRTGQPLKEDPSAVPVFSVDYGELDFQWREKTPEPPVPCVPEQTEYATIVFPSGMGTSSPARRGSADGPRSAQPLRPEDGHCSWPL
row,Structure (SMILES),IC50
1,CC(C)C[C@H]1NC(=O)[C@H](CCCN)NC(=O)[C@H](C(C)C)NC(=O)[C@H](Cc2ccc(-c3ccccc3)cc2)NC(=O)[C@H](C(C)C)NC(=O)[C@H](Cc2c[nH]c3ccccc23)NC(=O)[C@H](CC(=O)O)NC(=O)[C@H](Cc2ccc(OCC(=O)O)cc2)NC(=O)[C@H](Cc2ccc(OCC(=O)O)cc2)NC(=O)CSC[C@@H](C(=O)N[C@@H](CCN)C(=O)NCCCCCCCCCCC(=O)O)NC(=O)[C@H](CCCN)NC(=O)[C@H](C(C)C)NC(=O)[C@H](CC2CCCCC2)NC(=O)[C@H](CCN)NC1=O [Compound 2561] ({CH2CO}-Y(Carboxymethyl)Y(Carboxymethyl)DWV[Bip]V[Orn][dL][Dab][Cha]V[Orn]C[Dab][Aun]-OH; thioether N-14),14.6 nM
2,CC(C)C[C@H]1NC(=O)[C@H](CCCN)NC(=O)[C@H](Cc2ccc(C(=O)O)cc2)NC(=O)[C@H](Cc2ccc(-c3ccccc3)cc2)NC(=O)[C@H](Cc2ccc(C(=O)O)cc2)NC(=O)[C@H](Cc2cccc(C(F)(F)F)c2)NC(=O)[C@H](CC(=O)O)NC(=O)[C@H](Cc2ccc(OCC(=O)O)cc2)NC(=O)[C@H](CN2CCOCC2)NC(=O)CSC[C@@H](C(=O)N[C@@H](CCN)C(=O)NCCOCCOCC(=O)NCCOCCOCC(=O)NCCCCCCCCCCCCCCC(=O)O)NC(=O)[C@H](CO)NC(=O)[C@H](C(C)(C)O)NC(=O)[C@H](CC2CCCCC2)NC(=O)[C@H](CCN)NC1=O [Compound 2915] ({CH2CO}-[Ala(morpholin-4-yl)]Y(Carboxymethyl)D[Phe(3-CF3)][Phe(4-COOH)][Bip][Phe(4-COOH)][Orn][dL][Dab][Cha][Val(3-OH)]SC[Dab][AEEA][AEEA]-{NH(CH2)14COOH}; thioether N-14),176 nM

# Next, values leading:
row,IC50,Structure (SMILES)
1,9.2 nM,Cc1cccc(C[C@@H]2NC(=O)[C@H](CC(=O)O)NC(=O)[C@H](Cc3ccc(OCC(=O)O)cc3)NC(=O)[C@H](CN)NC(=O)CSC[C@@H](C(=O)N[C@@H](C)C(=O)N[C@@H](CC(=O)O)C(=O)NCCCCCCCCCCC(=O)O)NC(=O)[C@H]([C@@H](C)O)NC(=O)[C@H](C(C)C)NC(=O)[C@H](CC3CCCCC3)NC(=O)[C@H](CCN)NC(=O)[C@@H](CC(C)C)NC(=O)[C@H](CCCN)NC(=O)[C@H](CCCNC(N)=O)NC(=O)[C@H](Cc3ccc(-c4ccccc4)cc3)NC(=O)[C@H](C(C)C)NC2=O)c1 [Compound 1006] ({CH2CO}-[Dap]Y(Carboxymethyl)D[Phe(3-Me)]V[Bip][Cit][Orn][dL][Dab][Cha]VTCAD[Aun]-OH; thioether N-14)
2,7.2 nM,Cc1cccc(C[C@@H]2NC(=O)[C@H](CC(=O)O)NC(=O)[C@H](Cc3ccc(OCC(=O)O)cc3)NC(=O)[C@H](CN)NC(=O)CSC[C@@H](C(=O)N[C@@H](CCCCN)C(=O)NCCOCCOCC(=O)NCCCCCCCCCCC(=O)O)NC(=O)[C@H](CN)NC(=O)[C@H](C(C)C)NC(=O)[C@H](CC3CCCCC3)NC(=O)[C@H](CCN)NC(=O)[C@@H](CC(C)C)NC(=O)[C@H](CCCN)NC(=O)[C@H](C(C)C)NC(=O)[C@H](Cc3ccc(-c4ccccc4)cc3)NC(=O)[C@H](C(C)C)NC2=O)c1 [Compound 2526] ({CH2CO}-[Dap]Y(Carboxymethyl)D[Phe(3-Me)]V[Bip]V[Orn][dL][Dab][Cha]V[Dap]CK[AEEA][Aun]-OH; thioether N-14)
3,6.3 nM,Cc1cccc(C[C@@H]2NC(=O)[C@H](CC(=O)O)NC(=O)[C@H](Cc3ccc(OCC(=O)O)cc3)NC(=O)[C@H](CN)NC(=O)CSC[C@@H](C(=O)NCCOCCOCC(=O)NCCCCCCCCCCC(=O)O)NC(=O)[C@H](CCCN)NC(=O)[C@H](C(C)C)NC(=O)[C@H](CC3CCCCC3)NC(=O)[C@H](CCN)NC(=O)[C@@H](CC(C)C)NC(=O)[C@H](CCCN)NC(=O)[C@H](Cc3ccc(O)cc3)NC(=O)[C@H](Cc3ccc(-c4ccccc4)cc3)NC(=O)[C@H](C(C)C)NC2=O)c1 [Compound 2692] ({CH2CO}-[Dap]Y(Carboxymethyl)D[Phe(3-Me)]V[Bip]Y[Orn][dL][Dab][Cha]V[Orn]C[AEEA][Aun]-OH; thioether N-14)
